Assay type in all cases: in vivo
Test [1] relates to greenhouse red spider mite (Tetranychus urticae). In words: Tetranychus test (OP-resistant/immersion treatment). The protocol: (§1) To produce a suitable preparation of active compound, 1 part by weight of active compound is mixed with the stated amounts of solvent and emulsifier, and the concentrate is diluted with emulsifier-containing water to the desired concentration.
Bean plants (Phaseolus vulgaris) which are severely infested with all stages of the greenhouse red spider mite (Tetranychus urticae) are dipped into a preparation of the active compound of the desired concentration.
After the desired time, the activity in % is determined. 100% means that all the spider mites have been killed; 0% means that none of the spider mites have been killed.

The test system of test [2] is green peach aphid (Myzus persicae). Kind of test: Myzus test. Conditions: 1000 ppm. On the procedure:
To prepare a suitable active compound preparation, 1 part by weight of active compound is mixed with the stated amounts of solvent and emulsifier and the concentrate is diluted with emulsifier-containing water to the desired concentration.
Cabbage leaves (Brassica oleracea), which are severely infested with the green peach aphid (Myzus persicae) are treated by immersing them into the active compound preparation of the desired concentration.
After the desired time, the destruction rate is determined in %. 100% means that all of the aphids have been destroyed; 0% means that none of the aphids have been destroyed.

The subject of test [3] is larvae of the mustard beetle (Phaedon cochleariae). In words: Phaedon larvae test. As to conditions: 1000 ppm. The protocol: [table] To produce a suitable preparation of active compound, 1 part by weight of active compound is mixed with the stated amounts of solvent and emulsifier, and the concentrate is diluted with emulsifier-containing water to the desired concentration. Cabbage leaves (Brassica oleracea) are treated by being dipped into the preparation of active compound of the desired concentration and are infested with the larvae of the mustard beetle (Phaedon cochleariae) while the leaves are still moist.

The next test deals with Meloidogyne incognita. Kind of test: Meloidogyne test. Conditions: 20 ppm, with reference to gall formation. The protocol: (§2) To prepare a suitable active compound preparation, 1 part by weight of active compound is mixed with the stated amounts of solvent and emulsifier and the concentrate is diluted with water to the desired concentration.
Containers are filled with sand, active compound solution, Meloidogyne incognita egg/larval suspension and lettuce seeds. The lettuce seeds germinate and the plantlets develop. The galls develop on the roots.
After the desired time, the nematicidal efficacy is determined I n % with reference to gall formation. 100% means that no galls were found; 0% means that the number of galls on the treated plants corresponds to that of the untreated control.

The test system of test [4] is sugar beet. Kind of test: Post-emergence test. Conditions: greenhouse, 250 g a.i./ha, scored after three weeks. The protocol:
(§3) To prepare a suitable active compound preparation, 1 part by weight of active compound is mixed with the stated amount of solvent, the stated amount of emulsifier is added, and the concentrate is diluted with water to the desired concentration.
(§4) Test plants with a height of 5-15 cm are sprayed with the active compound preparation in such a way that the amounts of active compound desired in each case are applied per unit area. The concentration of the spray mixture is chosen in such a way that the amounts of active compound desired in each case are applied in 1 000 1 of water/ha.
(§5) After three weeks, the degree of damage of the plants is scored in % damage in comparison with the development of the untreated control.
(§6) The figures denote: • 0% =no effect (like untreated control) • 100% =total destruction

Test [5] has as its system Abultilon. Kind of test: Post-emergence test. Conditions: greenhouse, 250 g a.i./ha, scored after three weeks. The protocol:
as §3, §4, §5, §6

Test [6] concerns Avena fatua. In words: Post-emergence test. Conditions: greenhouse, 250 g a.i./ha, scored after three weeks. The protocol: as §3, §4, §5, §6
Test [7] relates to Echinochloa. In words: Post-emergence test. Conditions: greenhouse, 250 g a.i./ha, scored after three weeks. On the procedure:
as §3, §4, §5, §6

Test [8] concerns Alopecurus. In words: Post-emergence test. Conditions: greenhouse, 250 g a.i./ha, scored after three weeks. The protocol:
as §3, §4, §5, §6

Test [9] deals with Setaria. Kind of test: Post-emergence test. Conditions: greenhouse, 250 g a.i./ha, scored after three weeks. The protocol: as §3, §4, §5, §6
Test [10] concerns Sinapis. In words: Post-emergence test. Conditions: greenhouse, 250 g a.i./ha, scored after three weeks. The protocol:
as §3, §4, §5, §6

The test system of test [11] is Abultilon. In words: Pre-emergence test. Conditions: greenhouse, 250 g a.i./ha, scored after three weeks. The protocol:
(§7) [table] To prepare a suitable active compound preparation, 1 part by weight of active compound is mixed with the stated amount of solvent, the stated amount of emulsifier is added, and the concentrate is diluted with water to the desired concentration. Seeds of the test plant are sown in normal soil. After approximately 24 hours, the soil is sprayed with the active compound preparation in such a way that the amounts of active compound desired in each case are applied per unit area. The concentration of the spray mixture is chosen in such a way that the amounts of active compound desired in each case are applied in 1 000 1 of water/ha. After three weeks, the degree of damage of the plants is scored in % damage in comparison with the development of the untreated control.

Test [12] relates to Avena fatua. Kind of test: Pre-emergence test. As to conditions: greenhouse, 250 g a.i./ha, scored after three weeks. On the procedure:
as §7

Test [13] relates to Echinochloa. In words: Pre-emergence test. Conditions: greenhouse, 250 g a.i./ha, scored after three weeks. The protocol:
as §7

The test system of test [14] is Alopecurus. In words: Pre-emergence test. As to conditions: greenhouse, scored after three weeks. On the procedure:
as §7

In test [15] the test system is Setaria. Kind of test: Pre-emergence test. As to conditions: greenhouse, scored after three weeks. On the procedure: as §7
The test system of test [16] is Sinapis. In words: Pre-emergence test. Conditions: greenhouse, 250 g a.i./ha, scored after three weeks. The protocol: as §7
Test [17] relates to black bean aphids (Aphis fabae). In words: Aphis test, contact action. As to conditions: 1000 ppm. On the procedure: as §2
Shoots of young field bean plants (Vicia faba) which are severely infested with black bean aphids (Aphis fabae) are treated by being dipped into the active compound preparation of the desired concentration.
After the desired period of time, the destruction is determined in %. 100% means that all of the aphids have been destroyed; 0% means that no aphids have been destroyed.

The test system of test [18] is green rice leafhopper (Nephotettix cincticeps). Kind of test: Nephotettix test. As to conditions: 1000 ppm. On the procedure: To produce a suitable preparation of active compound, 1 part
by weight of active compound is mixed with the stated amounts of solvent and emulsifier, and the concentrate is diluted with emulsifier-containing water to the desired concentration.
Rice seedlings (Oryza sativa) are treated by being dipped into the preparation of active compound of the desired concentration and are infested with the green rice leafhopper (Nephotettix cincticeps) while the leaves are still moist.
After the desired time, the destruction in % is determined. 100% means that all the leafhoppers have been killed; 0% means that none of the leafhoppers have been killed.

The subject of test [19] is caterpillars of the armyworm (Spodoptera frugiperd). In words: Spodoptera frugiperda test. As to conditions: 1000 ppm. The protocol: as §1
Cabbage leaves (Brassica oleracea) are treated by being dipped into the preparation of active compound of the desired concentration and are infested with caterpillars of the armyworm (Spodoptera frugiperd) while the leaves are still moist.
(§8) After the desired time, the destruction in % is determined. 100% means that all the caterpillars have been killed; 0% means that none of the caterpillars have been killed.

The subject of test [20] is sugar beet. In words: Pre-emergence test. Conditions: greenhouse, scored after three weeks. The protocol: as §7
Another test has as its system Matricaria. Kind of test: Pre-emergence test. As to conditions: greenhouse, 125 g a.i./ha, scored after three weeks. The protocol:
as §7

Another test has as its system Lolium. Kind of test: Pre-emergence test. Conditions: greenhouse, 125 g a.i./ha, scored after three weeks. The protocol: as §7
For a further test, the system named is Cassia. In words: Pre-emergence test. As to conditions: greenhouse, 125 g a.i./ha, scored after three weeks. On the procedure:
as §7

Another test has as its system Viola. In words: Pre-emergence test. Conditions: greenhouse, 125 g a.i./ha, scored after three weeks. The protocol:
as §7

The subject of test [21] is caterpillars of the diamond-back moth (Plutella xylostella). In words: Plutella test. As to conditions: 1000 ppm. The protocol: as §1
Cabbage leaves (Brassica oleracea) are treated by being dipped into the preparation of active compound of the desired concentration and are infested with caterpillars of the diamond-back moth (Plutella xylostella) while the leaves are still moist.
as §8

The next test deals with Amaranthus. In words: Post-emergence test. Conditions: greenhouse, 250 g a.i./ha, scored after three weeks. On the procedure: as §3, §4, §5, §6

The structures appear in SMILES notation.

For the compound `CCc1cc(Cl)cc(OC)c1C1=C(O)C2(CCC(OC)CC2)NC1=O` (single isomer, unassigned) [Example I-1-a-3], the “Destruction in % after 7 d” value in test [1] (100 ppm) and in test [3] was 80% throughout. Moreover, the “Destruction in % after 6 d” value in [2] came out at 90%. In addition, the “Destruction in % after 14 d” value in the test with Meloidogyne incognita stood at 98%. Moreover, in the test with sugar beet [4], the “degree of damage, sugar beet” value was found to be 0%. Also, the entries for the “degree of damage, Abultilon” value in the test with Abultilon [5] and in the test with Abultilon [11] were 70% and 80%, respectively. Also, the “degree of damage, Avena fatua” value in the test on Avena fatua [6] and with Avena fatua [12] was 100% throughout. Besides, the “degree of damage, Echinochloa” value with Echinochloa [7] and in the test with Echinochloa [13] was 100% each time. Besides, the “degree of damage, Alopecurus” value is 100% with Alopecurus [8] and 80% in the test on Alopecurus [14] (250 g a.i./ha). Moreover, the “degree of damage, Setaria” value in the test on Setaria [9] and with Setaria [15] (250 g a.i./ha) was 100% throughout. Also, the “degree of damage, Sinapis” value with Sinapis [10] and in the test with Sinapis [16] was 80% each time.
`COc1cc(Cl)cc(C)c1C1=C(O)C2(CCC(C)CC2)NC1=O` (stereo not drawn) [Example I-1-a-1]: the results for the “Destruction in % after 6 d” value in test [17], in [18] and in test [2] were 100%, 100% and 95%, respectively. In addition, the “Destruction in % after 7 d” value in [1] (1000 ppm), in test [19], in test [3] and in test [21] was 100% in each case. The “degree of damage, sugar beet” value in the test on sugar beet [4] and with sugar beet [20] (125 g a.i./ha) was 0% in each case. In the test on Avena fatua [6], the “degree of damage, Avena fatua” value stood at 100%. For the same compound, the “degree of damage, Alopecurus” value in the test on Alopecurus [8] and with Alopecurus [14] (125 g a.i./ha) was 100% throughout. Also, the “degree of damage, Setaria” value in the test on Setaria [9] and in the test with Setaria [15] (125 g a.i./ha) was 100% each time. Moreover, the “degree of damage, Matricaria” value in the test with Matricaria stood at 90%. Also, the “degree of damage, Lolium” value in the test with Lolium is 100%. For the same compound, the “degree of damage, Cassia” value in the test with Cassia is listed as 100%. Moreover, in the test with Viola, the “degree of damage, Viola” value is 90%.
`COc1cc(Cl)cc(C)c1C1=C(O)C2(CCOCC2)NC1=O` [Example I-1-a-2]: the “Destruction in % after 7 d” value was 95% in test [1] (1000 ppm), 100% in test [3] and 100% in test [21]. Also, the “Destruction in % after 6 d” value in test [18] and in test [2] was 100% throughout. In addition, the “degree of damage, sugar beet” value in the test with sugar beet [4] and in the test with sugar beet [20] (250 g a.i./ha) was 0% throughout. Also, the “degree of damage, Avena fatua” value in the test with Avena fatua [6] amounted to 100%; in the test with Avena fatua [12], 80%. The figures for the “degree of damage, Setaria” value in the test with Setaria [9] and in the test with Setaria [15] (250 g a.i./ha) were 100% and 80%, respectively. Further, the “degree of damage, Amaranthus” value with Amaranthus worked out at 90%. Moreover, the “degree of damage, Alopecurus” value in the test with Alopecurus [14] (250 g a.i./ha) worked out at 100%.
